Laboratory results published in paper PMC5849061 (European journal of medicinal chemistry, 2018).
Converted amounts (≈) assume the structure as drawn.

Legend:
[1] = system: murine macrophage (J774) cells; assay: Cytotoxicity against J774 macrophage cells; format: cell-based; details: 24-hour incubation, MTS, tested 8, 16, 32 μg/mL
[2] = system: MRSA USA400 inside infected macrophage (J774) cells; assay: Clearance of intracellular MRSA in infected J774 macrophages; format: cell-based, Staphylococcus aureus; details: 24 hours
human FPPS (HsFPPS) = biological target: T1, human FPPS (HsFPPS) (Homo sapiens, UniProt P14324); assay: Human FPPS inhibition; format: biochemical; details: data not shown
T1 sequence (P14324 1-419): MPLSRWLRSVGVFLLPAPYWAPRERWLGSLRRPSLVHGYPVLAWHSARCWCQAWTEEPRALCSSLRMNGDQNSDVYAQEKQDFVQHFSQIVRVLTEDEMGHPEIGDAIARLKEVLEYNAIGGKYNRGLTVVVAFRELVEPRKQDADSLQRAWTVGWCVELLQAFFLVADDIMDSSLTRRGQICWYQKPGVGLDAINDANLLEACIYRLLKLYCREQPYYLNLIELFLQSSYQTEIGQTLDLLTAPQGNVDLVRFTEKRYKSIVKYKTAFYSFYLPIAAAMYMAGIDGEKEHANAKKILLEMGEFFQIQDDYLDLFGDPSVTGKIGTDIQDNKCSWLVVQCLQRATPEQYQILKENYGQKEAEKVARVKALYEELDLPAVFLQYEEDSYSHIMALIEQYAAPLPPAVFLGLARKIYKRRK

Caco-2 cells = assay: Caco-2 bidirectional permeability assay; format: in vitro ADME, human
[3] = Metabolic stability in pooled human liver microsomes; format: in vitro ADME; details: for Notes (metabolic stability classification): HLM
[4] = In vivo pharmacokinetics in rat, single IV bolus; design: species or system Sprague-Dawley rats; details: male, Sprague-Dawley, plasma, 2 μM solution, t1/2, rat, two-compartment model
MRSA USA400 = assay: Time-kill assay against MRSA USA400; details: 4 × MIC; for kill kinetics (in words): MRSA USA400
[5] = system: human colorectal cells (HRT-18); assay: Cytotoxicity against human colorectal; details: HRT-18 cells, two hours, MTS; tested 16, 32, 64 μg/mL
[6] = system: PMF in E. coli inverted membrane vesicles (IMVs); assay: IMV protonophore uncoupler assay
MRSA USA300 = assay: Time-kill assay against MRSA USA300; details: 4 × MIC
VRS11a (VRSA) = assay: Broth microdilution MIC/MBC against VRS11a; format: cell-based; details: Staphylococcus aureus
[7] = human, pooled human liver microsomes, pH 7.4

C/C(=N\NC(=N)N)c1sc(-c2ccc(C#CC3CC3)cc2)nc1C [Compound 9, 2-(1-(2-(4-(Cyclopropylethynyl)phenyl)-4-methylthiazol-5-yl)ethylidene) hydrazine-1-carboximidamide]
non-toxic to macrophage cells up to a concentration of [1]: 8 µg/mL
reduction of the burden of intracellular MRSA ([2]; 8 μg/mL (4 × MIC)): neither the alicyclic-containing derivatives 6, 7 or 9 (4 × MIC) nor vancomycin (4 × MIC) were able to produce a significant reduction
inhibition of HsFPPS (human FPPS (HsFPPS)): no inhibition
Notes (permeability classification) (Caco-2 cells): Low permeability
Notes (metabolic stability classification) [3]: Stable to metabolism
half-life at 0.1 μM [3, 7]: 4.8 h
microsomal CLint at 0.1 μM [3, 7]: < 116 µL/min/mg
half-life [4]: ~4.5 h
time to complete eradication of MRSA USA400 (MRSA USA400): 24 h
kill kinetics (in words) (MRSA USA400): slow bactericidal activity
non-toxic up to (concentration) [5]: 32 µg/mL
EC50 for PMF collapse (corresponding mass concentration) ([6]; ATP-powered PMF generation): 8 µg/mL
EC50 for PMF collapse (corresponding mass concentration) ([6]; succinate/O2-powered PMF generation): 9.5 µg/mL

CCCCCC#Cc1ccc(-c2nc(C)c(/C(C)=N/NC(=N)N)s2)cc1 [Compound 11, 2-(1-(2-(4-(Hep-1-yn-1-yl)phenyl)-4-methylthiazol-5-yl)ethylidene)hydraz-ine-1-carboximidamide]
non-toxic to macrophage cells up to a concentration of [1]: 16 µg/mL
reduction of the burden of intracellular MRSA ([2]; 16 μg/mL): complete eradication
kill kinetics (in words) (MRSA USA300): rapid bactericidal activity
non-toxic up to (concentration) [5]: 32 µg/mL

C/C(=N\NC(=N)N)c1sc(-c2ccc(C#CC(C)(C)C)cc2)nc1C [Compound 13, 2-(1-(2-(4-(3,3-Dimethylbut-1-yn-1-yl)-phenyl)-4-methylthiazol-5-yl)ethylidene) hydrazine-1-carboximidamide]
non-toxic up to (concentration) [5]: 32 µg/mL

CN[C@H](CC(C)C)C(=O)N[C@H]1C(=O)N[C@@H](CC(N)=O)C(=O)N[C@H]2C(=O)N[C@H]3C(=O)N[C@H](C(=O)N[C@H](C(=O)O)c4cc(O)cc(O)c4-c4cc3ccc4O)[C@H](O)c3ccc(c(Cl)c3)Oc3cc2cc(c3O[C@@H]2O[C@H](CO)[C@@H](O)[C@H](O)[C@H]2O[C@H]2C[C@](C)(N)[C@H](O)[C@H](C)O2)Oc2ccc(cc2Cl)[C@H]1O [Vancomycin, reference compound]
time to complete eradication of MRSA USA400 (MRSA USA400): 24 h

C/C(=N\NC(=N)N)c1sc(-c2ccc(C#Cc3ccccc3)cc2)nc1C [Compound 5]
kill kinetics (in words) (MRSA USA400): bacteriostatic
non-toxic up to (concentration) [5]: 32 µg/mL

C/C(=N\NC1=NCCN1)c1sc(-c2ccc(C#CC3CC3)cc2)nc1C [Compound 19, 2-(4-(Cyclopropylethynyl)phenyl)-5-(1-(2-(4,5-dihydro-1H-imidazol-2-yl)hydrazono)ethyl)-4-methylthiazole]
Notes (metabolic stability classification) [3]: Stable to metabolism

CCCC#Cc1ccc(-c2nc(C)c(/C(C)=N/NC(=N)N)s2)cc1 [Compound 10, 2-(1-(4-Methyl-2-(4-(pent-1-yn-1-yl)phenyl)thiazol-5-yl)ethylidene)hydrazine-1-carboximidamide]
MIC (VRS11a (VRSA)): 0.5 µg/mL (≈ 1.47 µM)
non-toxic to macrophage cells up to a concentration of [1]: 16 µg/mL
reduction of the burden of intracellular MRSA ([2]; 16 μg/mL): complete eradication
kill kinetics (in words) (MRSA USA300): rapid bactericidal activity
non-toxic up to (concentration) [5]: 32 µg/mL

C/C(=N\NC(=N)N)c1sc(-c2ccc(C#CC3CCCC3)cc2)nc1C [Compound 7, 2-{1-[2-(4-(Cyclopentylethynyl)phenyl)-4-methylthiazol-5-yl]ethylidene} hydrazine-1-carboximidamide]
non-toxic to macrophage cells up to a concentration of [1]: 8 µg/mL
reduction of the burden of intracellular MRSA ([2]; 8 μg/mL (4 × MIC)): neither the alicyclic-containing derivatives 6, 7 or 9 (4 × MIC) nor vancomycin (4 × MIC) were able to produce a significant reduction
reduction in MRSA CFU/mL after 8 hours (MRSA USA400; 8 hours, re-growth thereafter): ~3 log10
non-toxic up to (concentration) [5]: 32 µg/mL

CCCCCCC#Cc1ccc(-c2nc(C)c(/C(C)=N/NC(=N)N)s2)cc1 [Compound 12]
non-toxic up to (concentration) [5]: 32 µg/mL

C/C(=N\NC(=N)N)c1sc(-c2ccc(C#CC3CCCCC3)cc2)nc1C [Compound 6, 2-(1-(2-(4-(Cyclohexylethynyl)phenyl)-4-methylthiazol-5-yl)ethylidene)hydrazine-1-carboximidamide]
reduction of the burden of intracellular MRSA ([2]; 16 μg/mL): neither the alicyclic-containing derivatives 6, 7 or 9 (4 × MIC) nor vancomycin (4 × MIC) were able to produce a significant reduction
non-toxic up to (concentration) [5]: 32 µg/mL

C/C(=N\NC1=NCCN1)c1sc(-c2ccc(C#CC(C)(C)C)cc2)nc1C [Compound 23, 5-(1-(2-(4,5-Dihydro-1H-imidazol-2-yl)hydrazono)ethyl)-2-(4-(3,3-dimethylbut-1-yn-1-yl)phenyl)-4-methylthiazole]
non-toxic up to (concentration) [5]: 32 µg/mL
